From patent US20250041377A1, “PHARMACEUTICAL USE” (ENLITISA (SHANGHAI) PHARMACEUTICAL CO., LTD., priority 2018, published 2025)
Where a SMILES comes first, the peptide text is derived from it. [ ]: non-standard residue; d: D form. Hyp = O=C(O)[CH]1C[CH](O)CN1

How the values were obtained:
[1] = tested on: TNF-α, IL-6 and IL-1B in exudate; test: Air pouch model, ELISA of exudate; format: in vivo, C57BL/6 mice; details: 300 μg/mouse into air pouch; FIG. 1
Method: Healthy adult male C57BL/6 mice weighing between 20 and 30 g were supplied by Nanjing Biomedicial Research Institute of Nanjing University (NBRI). Prior to any experiments being conducted, mice were housed under standardized conditions (at a constant temperature of 22±2° C., with alternating 12 hour periods of light and darkness), and were fed on a standard mouse diet with water, for about a week.
General anesthesia was induced using intraperitoneal 3% chloral hydrate (Sinopharm Chemical Reagent Co., Ltd., Shanghai, China; 1 mL/10 g of body weight). The hair of the entire dorsum was shaved and depilated 1 day before sterile air injection.
Air pouches were produced by subcutaneous injection of sterile air (5 mL) into the intrascapular area of the mice. After three days, another injection of air (3 mL) was performed to maintain the pouches. […]
Exudates were collected and volumes were quantified. The exudates were centrifuged at 3000 rpm for 10 minutes at 4° C., and the supernatants were collected and stored at −20° C. for ELISA analysis using standard ELISA test kits from Beijing 4A Biotech Co., Ltd. (Beijing) and an ELISA reader (SH-1000 Hitachi, Japan) for […] (TNF-α), interleukin 1 beta (IL-1B), interleukin 6 (IL-6). […]

[2] = tested on: ammonia induced cough; test: Antitussive experiment, ammonia induced cough method; format: in vivo, ICR mice
Method: 36 ICR mice were randomly divided into 3 groups according to their body weight, labelled a CMC-Na (Negative) control group, a dextromethorphan hydrobromide (Positive) control group and a Compound B (B) group. Each group contained 12 mice, with 6 males and 6 females in each.
Compound B was administered via atomization inhalation using a YLS-8A Multifunctional cough and sputum inducing device (Jinan Yiyan Science and Technology Co., Ltd.) (0.15 ml/min) for 1 minute, once daily for 5 days. And the positive control drug was administered once daily by intragastric administration at 10 mg/kg for 5 days.
The mice were placed in an inverted beaker 1, 2, and 4 hours after the last drug administration. 1 mL of aqueous ammonia (25.0 to 28.0%) was placed on top of a boiling water bath and was evaporated into the beaker.
The time for mice to receive ammonia exposure was determined by a method characterized by analyzing data immediately after one test or a batch of tests. The results of the previous analysis determined how to conduct the next test or batch of tests.
The difference between the logarithmic value of two adjacent time periods was 0.1.
The number of coughs within 1 minute was detected using a stethoscope. If a mouse coughed three or more times over one minute, this was labelled as called ‘cough’, and less than three times in one minute was labelled ‘cough free’.
The EDT50 was defined as the ammonia stimulating time at which half mice developed a “cough”, calculated by the equation: […]
(c equals the sum of r and x, r is the number of animals in each stimulating time group, x is the logarithm of stimulation time and n was the number of animals in each group). lg is a base 10 logarithmic value.
In Table 15, R is the EDT50 in treatment group divided by the EDT50 in the Control group expressed as a percentage.

[3] = tested on: closed comedones; test: Cream to treat closed comedones; format: in vivo, human; details: cream 0.1 mg/g, morning and evening
Method: Compound B (10 mg; see Example 1 above) was first dissolved in WFI (10 g).
A mixture was then made comprising sorbitan stearate (2 g), cetyl alcohol (4 g), octanoic/capric glyceride (6 g) and glyceryl monostearate (3 g) (all Sinopharm Chemical Reagent Co. Ltd.), which was stirred and heated to 85° C. to melt the mixture completely.
Glycerin (5 g; Sinopharm Chemical Reagent Co. Ltd.) and ammonium acryloyldimethyltaurate/VP copolymer (0.13 g; Clariant Chemical (Guangzhou) Co., Ltd., China) were mixed with 68.86 g of WFI. This mixture was stirred and heated to 85° C. to provide a homogeneous colloidal suspension.
The copolymer/water mixture was added to the sorbitan stearate-containing mixture, which was then quickly stirred using emulsification equipment for 5 minutes. The resultant emulsion was cooled to room temperature.
The Compound B solution was then added to the resultant mixture with stirring to obtain the finished cream. The concentration of Compound B in the final cream was 0.1 mg/g.
Subjects with closed comedones (blocked pores) and in an acute attacking period of acne were enrolled in the study. Symptoms included sebaceous glands blocked by keratinocytes, forming a slightly hard lump and a protruding white head.
The cream was evenly smeared in the morning and evening after facial cleansing.

[4] = tested on: operation pain during laser surgery; test: Liquid spray to relieve operational pain during laser surgery; format: in vivo, human
Method: The enrolled subject was required to use 1 mL of a liquid spray comprising the same formulation as that described in Example 14 above in a water spray bottle on half of their face before and after a lattice laser operation to remove of facial melanin.

[5] = tested on: fever; test: Aerosol inhalation to treat fever; format: in vivo, human
Method: The same formulation as described in Example 14 above was administered to a subject who enrolled in the study having had got a fever (a body temperature over 38.5° C.) for 1 day. Other anti-fever medications were not used prior to treatment.
The subject was required to use the aerosol inhalation device in the morning and in the evening by pouring 3 mL of the formulation into an atomizer storage tank connected to an atomizer and a mask, which was worn over the mouth and nose.

Structure (SMILES): CC(N)C(=O)NC(CCCCN)C(=O)N1CCCC1C(=O)NC(CO)C(=O)NC(Cc1ccc(O)cc1)C(=O)N1CC(O)CC1C(=O)N1CC(O)CC1C(=O)NC(C(=O)NC(Cc1ccc(O)cc1)C(=O)NC(CCCCN)C(=O)O)C(C)O (stereo not drawn) [Compound B, Ala-Lys-Pro-Ser-Tyr-Hyp-Hyp-Thr-Tyr-Lys] (H-AKPSY[Hyp][Hyp]TYK-OH; configuration not given here)
- ELISA test results of the exudate for TNF-α, IL-6 and IL-1B [1]: very strong anti-inflammatory effects
- R ([2]; 1 hour after admin., EDT50 in treatment group divided by EDT50 in Control group): 131.7%
- EDT50 ([2]; 1 hour after last administration, B 195 μg/mouse atomization inhalation, Positive 10 mg/kg intragastric, once daily 5 days): 28.2 s
- R ([2]; 2 hours after admin., EDT50 treatment/Control): 131.8%
- EDT50 ([2]; 2 hours after last administration): 28.2 s
- R ([2]; 4 hours after admin., EDT50 treatment/Control): 100 [???] %
- EDT50 ([2]; 4 hours after last administration): 26.9 s
- effect on cough relief ([2]; at 1 and 2 hours): positive effect on cough relief
- lumps of closed comedones [3]: disappeared after 1 day of use
- pain during lattice laser operation ([4]; 1 mL liquid spray 0.5 mg/mL on half of face before and after operation): did not feel pain during the operation
- pain after lattice laser operation ([4]; sprayed half of face, unsprayed half: pain lasted about 2 hours): felt no pain after the operation
- recurrence of fever symptoms ([5]; 0.5 mg/mL aerosol inhalation, morning and evening): did not recur after 3 uses
- body temperature ([5]; 0.5 mg/mL, 3 mL aerosol inhalation, subject with body temperature over 38.5° C.): within two hours, their body temperature had dropped to normal
